In patent publication US20140378551A1, “Composition for the Prophylactic Treatment of Neuropathic Pain” (Universite d'Auvergne, priority 2011, published 2014):

What was measured:
[1] = test system: post-operative neuropathic pain; assay: Phase 2 clinical trial, pain self-evaluation after mastectomy and axillary dissection; format: in vivo, human; conditions: follow-up after operation, self-evaluation scale 1 to 10; preliminary results
Protocol: A phase 2 clinical trial on the development and evaluation of neuropathic pain was conducted among patients having to undergo mastectomy and axillary dissection. The patients were separated randomly into two groups: • a control group who were to receive lactose as a placebo; and • a group treated by memantine hydrochloride (EBIXA®).
The clinical trial protocol is described in detail in the form referenced NTC014536314 (http://clinicaltrials.gov). […]
The patient's pain was evaluated by asking them to assess their own pain on a numerical scale ranging from 1 to 10 (10 being the maximum stage of pain) for the two weeks following the operation and for three months following the operation. […] The development of neuropathic pain is also evaluated by the DN4 questionnaire on neuropathic pain, and the Questionnaire sur la Douleur de Saint-Antoine (QDSA) or “Saint-Antoine pain questionnaire”. […]
FIG. 7 is a graph showing the preliminary results obtained on the first […] having taken part in these clinical trials (six patients had received the placebo composition and seven patients had received the memantine-hydrochloride-based composition), their pain being evaluated by the method of self-evaluation on a scale of 1 to 10. […]

[2] = test system: neuropathic pain in patients; conditions: cited from earlier work
[3] = test system: tyrosine 1472 of the NR2B sub-unit of the NMDA receptor; assay: Western blot of phosphorylated tyrosine 1472 of NR2B at the spinal level; format: in vivo, rat
Protocol: The effects of memantine are also evaluated in the expression of the phosphorylation of tyrosine 1472 of the NR2B sub-unit of the NMDA receptor at the spinal level by the Western-blot technique.
The rats are sacrificed by decapitation. The lumbar enlargements (L4-L6) are collected and subjected to lysis at 4° C. in 400 μL of stop buffer (50 mM Hepes, pH 7.5, containing 150 mM NaCl, 10 mM EDTA, 10 mM Na2P2O7, 2 mM Na3VO4, 100 mM NaF 1% Triton, 0.5 mM PMSF, 100 UI/mL Iniprol and 20 μM Leupeptine).
After sonication, two operations of centrifugation at 14,000 rpm at 4° C. are used to retrieve the proteins from the cytoplasm. The supernatant is retrieved and the proteins are determined by colorimetry (BC Assay UP40840A®, Interchim). They are denatured at 100° C. for five minutes in a buffer Tris 100 mM, pH 6.8, containing 6% SDS, 20% Glycerol and 20% bromophenol/(β-mercaptoethanol. Electrophoresis is used to separate the proteins on a polyacrylamide gel. The migration is done at 90 mA for two hours in the following buffer: Tris 50 mM, pH 7.4, containing 380 mM Glycine and 7 mM SDS. The proteins are then transferred to a nitrocellulose membrane (Millipore) for three hours in a buffer Tris 25 mM, pH 8.3, containing 190 mM Glycine, 20% methanol (percentage by volume). The protocols are carried out according to the recommendations of the supplier and differ according to the antibody considered.
After blocking of the non-specific sites with a solution containing 5% of non-fat dried milk, the membrane is incubated throughout the night at […] under agitation with the antibody of interest diluted in the blocking solution, namely an anti-pTyr^1472 NR2B antibody recognizing NR2B phosphorylated on tyrosine 1472 (dilution by volume=1/1000, Millipore).
The membrane is then hybridized for one hour under agitation with an antibody coupled with peroxydase (dilution by volume=1/10 000, Pierce) diluted in the blocking buffer.
The developing is done by chemiluminescence (Super Signal® West Pico
Chemiluminescent Substrate, Pierce). […]

CC12CC3CC(C)(C1)CC(N)(C3)C2 [memantine, 1-amino-3,5-dimethyl-adamantane]
level of pain versus placebo [1]: patients having received the placebo have a higher level of pain than patients having received memantine
relief to patients with amputated limb or nerve lesions following surgery ([2]; Nikolajsen et al., 2000): inefficacious
effect in patients who had undergone amputation ([2]; administered just after the operation (Buvanendran et al, 2008)): beneficial effect
rate of phosphorylation of the tyrosine 1472 residue of NR2B ([3]; SNL rats treated preventively, spinal cord, Western blot): equivalent firstly to that of the non-treated Sham rats and is secondly far lower than that of the operated rats that have not been treated with memantine
phosphorylation of the tyrosine 1472 residue of NR2B ([3]; Sham rats, spinal cord, Western blot): does not significantly diminish the phosphorylation of the tyrosine 1472 residue
phosphorylation of the tyrosine residue at position 1472 (pTyr1472) of NR2B ([3]; summary statement): significantly inhibits the phosphorylation
